Data published in patent US20240336574A1 (LATIGO BIOTHERAPEUTICS, INC., priority 2021, published 2024).

Legend:
[1] = biological target: T1, recombinant human NaV1.8 stably transfected HEK cells (Homo sapiens, UniProt Q9Y5Y9); experiment: Compound profiling on NaV1.8, human NaV1.8 cell line, SyncroPatch384PE automated patch clamp assay (Example 115, third set of compounds, Table 27); assay type: cell-based; conditions: human NaV1.8 HEK cells, Table 27 (third set of compounds)
T1 construct: expressed in transfected cells; host or cells: HEK cells, stably transfected
T1 sequence (Q9Y5Y9 whole entry): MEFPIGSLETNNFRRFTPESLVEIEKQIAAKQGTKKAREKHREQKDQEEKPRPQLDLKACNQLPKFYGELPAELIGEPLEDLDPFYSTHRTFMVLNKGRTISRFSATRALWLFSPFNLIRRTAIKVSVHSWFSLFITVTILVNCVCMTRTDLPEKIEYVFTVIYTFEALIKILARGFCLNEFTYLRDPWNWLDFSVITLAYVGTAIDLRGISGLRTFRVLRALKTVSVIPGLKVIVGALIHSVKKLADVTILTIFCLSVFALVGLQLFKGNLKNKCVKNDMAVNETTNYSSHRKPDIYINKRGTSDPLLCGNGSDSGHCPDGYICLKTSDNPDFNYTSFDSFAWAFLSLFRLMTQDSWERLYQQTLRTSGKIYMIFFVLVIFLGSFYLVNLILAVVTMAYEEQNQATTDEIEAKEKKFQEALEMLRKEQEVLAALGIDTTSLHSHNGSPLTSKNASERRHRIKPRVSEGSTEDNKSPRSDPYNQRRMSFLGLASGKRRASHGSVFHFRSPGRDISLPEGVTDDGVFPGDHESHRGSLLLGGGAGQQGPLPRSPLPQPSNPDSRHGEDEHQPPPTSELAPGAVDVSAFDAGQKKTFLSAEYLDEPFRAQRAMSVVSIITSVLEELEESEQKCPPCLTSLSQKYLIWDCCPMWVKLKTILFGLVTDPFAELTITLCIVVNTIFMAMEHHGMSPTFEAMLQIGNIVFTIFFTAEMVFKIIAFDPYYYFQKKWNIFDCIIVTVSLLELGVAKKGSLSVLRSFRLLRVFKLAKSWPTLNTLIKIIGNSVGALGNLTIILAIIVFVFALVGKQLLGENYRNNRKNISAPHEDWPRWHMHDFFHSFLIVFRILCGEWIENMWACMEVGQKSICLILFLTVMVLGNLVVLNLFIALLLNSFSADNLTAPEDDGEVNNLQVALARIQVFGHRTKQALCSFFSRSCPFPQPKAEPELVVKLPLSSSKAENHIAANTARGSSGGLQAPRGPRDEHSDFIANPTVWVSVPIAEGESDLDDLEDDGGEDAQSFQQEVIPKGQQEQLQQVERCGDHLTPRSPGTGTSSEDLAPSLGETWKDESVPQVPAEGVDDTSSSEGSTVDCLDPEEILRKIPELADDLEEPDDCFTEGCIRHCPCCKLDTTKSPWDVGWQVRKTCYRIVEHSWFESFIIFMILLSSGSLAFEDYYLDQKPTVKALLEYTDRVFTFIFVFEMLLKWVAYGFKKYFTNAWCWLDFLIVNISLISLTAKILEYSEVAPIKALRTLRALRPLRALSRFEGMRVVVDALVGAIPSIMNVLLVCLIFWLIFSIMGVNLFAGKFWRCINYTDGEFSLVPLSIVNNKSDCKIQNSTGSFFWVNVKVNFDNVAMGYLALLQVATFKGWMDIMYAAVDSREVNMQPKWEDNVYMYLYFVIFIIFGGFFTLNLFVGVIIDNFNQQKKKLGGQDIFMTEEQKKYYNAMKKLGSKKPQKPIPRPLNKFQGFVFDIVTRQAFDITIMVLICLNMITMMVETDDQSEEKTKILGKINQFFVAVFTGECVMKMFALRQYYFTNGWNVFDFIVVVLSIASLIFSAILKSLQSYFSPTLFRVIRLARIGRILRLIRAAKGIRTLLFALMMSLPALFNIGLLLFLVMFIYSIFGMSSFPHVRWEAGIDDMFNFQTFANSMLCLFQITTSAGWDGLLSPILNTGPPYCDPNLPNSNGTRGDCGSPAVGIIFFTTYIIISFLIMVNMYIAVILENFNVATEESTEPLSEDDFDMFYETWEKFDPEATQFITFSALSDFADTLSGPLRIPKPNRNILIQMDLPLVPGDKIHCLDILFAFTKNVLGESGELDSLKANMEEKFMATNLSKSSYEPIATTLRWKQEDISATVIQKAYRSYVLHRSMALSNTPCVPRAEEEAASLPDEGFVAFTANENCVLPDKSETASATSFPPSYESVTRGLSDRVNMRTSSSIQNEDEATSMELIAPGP
Method: Compound Profiling on NaV1.8 Human NaV1.8 Cell Line SyncroPatch384PE Assay
Compounds were tested on recombinant human NaV1.8 stably transfected HEK cells using the SyncroPatch384PE system, an automated patch clamp device. Cells were cultured at 37° C./5% CO2 in DMEM medium supplemented with GlutaMAX I, NEAA 1%, FBS 10% and seeded in T175 flasks. Cells were cultured at 30° C. one day prior to recording sodium currents. On the day of the recordings, cells were detached with 0.05% Trypsin-EDTA, resuspended in serum free DMEM medium and placed into the SyncroPatch384PE 6° C. pre-cooled cell hotel and shaken at 200 rpm. Intracellular solution (IC) contained, in mM: 10, CsCl; 110, CsF; 20, EGTA; 10, HEPES. Extracellular solution (EC) contained, in mM: 140, NaCl; 4, KCl; 5, Glucose; 10, HEPES; 2, CaCl2; 1, MgCl2. Washing solution contained, in mM: 40, NMDG; 100, NaCl; 4, KCl; 10, Glucose; 10, HEPES; 5, CaCl2; 1, MgCl2.
Compounds were tested in quadruplicates in 0.1% DMSO and 0.030% Pluronic Acid. Compounds were diluted 1:3.33 in EC solution to create a 10-point concentration response curve, spanning a final concentration range from 10-0.0002 μM in the assay plate. Compounds with low nM potency were retested using a lower concentration range (1-0.00002 μM). Each plate contained tetracaine and another tool compound as positive controls. Up to 7 compounds were tested on one plate. 150 μM tetracaine and 0.1% DMSO were used as high and low controls, respectively.
Whole cell patch clamp recordings were conducted according to Nanion's standard procedure for SyncroPatch384PE®. Cells were held at a holding potential of −120 mV. A depolarization step to 10 mV for 30 ms was applied (P1 measurement), followed by a hyperpolarization step to −100 mV for 100 ms. An inactivation step at −40 mV for 10 sec was applied before stepping to −100 mV for 20 ms, followed by a step to 10 mV for 30 ms (P2 measurement) and then back to −100 mV for 30 ms. Sweep interval was 15 sec with a sampling rate of 10 kHz. Following establishment of the whole-cell configuration in EC, two washing steps with reference buffer were performed to stabilize the baseline. Compounds were then applied by the SynchroPatch into each well and the current was recorded for five minutes in EC, followed by application of tetracaine to achieve full block at the end of the experiment. The potency of the compounds was assessed on two read-outs, resting state block (P1 measurement) or inactivated state block (P2 measurement) to obtain IC50 values. Values were normalized to high (tetracaine) and low (DMSO) controls.

[2] = biological target: T1, recombinant human NaV1.8 stably transfected HEK cells; experiment: Compound profiling on NaV1.8, human NaV1.8 cell line, SyncroPatch384PE automated patch clamp assay (Example 102, first set of compounds, Table 16); assay type: cell-based; conditions: human NaV1.8 HEK cells, Table 16 (first set of compounds)
Method in brief: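 Automated whole-cell patch clamp on HEK cells precultured at 30 °C one day before recording; CsF-based internal, 140 mM NaCl external. 10-point curve, 20–0.001 μM final, 0.1% DMSO, 5 min exposure. IC50 for resting (P1, −120 mV hold) and inactivated (P2, after 10 s at −40 mV) block, normalized to 250 μM tetracaine and DMSO.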

[3] = inactivated state block (P2 measurement), read-out: P2 IC50
[4] = resting state block (P1 measurement), read-out: P1 IC50
[5] = inactivated state block (P2 measurement), read-out: P2IC50
[6] = resting state block (P1 measurement), read-out: P1IC50

Structure (SMILES)	IC50 [1, 3] [nM]	IC50 [1, 4] [nM]	IC50 [2, 5] [nM]	IC50 [2, 6] [nM]
COc1c(Oc2ncc(C(F)(F)F)nc2C(=O)Nc2cccc(S(C)(=N)=O)c2)ccc(F)c1F (stereo not drawn) [Compound 136, 3-(3,4-difluoro-2-methoxy-phenoxy)-N-[3-(methylsulfonimidoyl)phenyl]-6-(trifluoromethyl)pyrazine-2-carboxamide]	≤ 200	≤ 200	–	–
Cc1cc(OC(F)(F)F)ccc1Oc1nnc(C(F)(F)F)cc1C(=O)Nc1ccc(C(N)=O)cc1 [Compound 37]	≤ 200	≤ 200	–	–
Cc1cc(F)ccc1Oc1nnc(C(F)(F)F)cc1C(=O)Nc1ccc(S(C)(=N)=O)cc1 (stereo not drawn) [Compound 98, 3-(4-Fluoro-2-methylphenoxy)-N-(4-(S-methylsulfonimidoyl)phenyl)-6-(trifluoromethyl)pyridazine-4-carboxamide]	> 5000	> 5000	–	–
CS(=O)(=O)c1cccc(NC(=O)c2cc(C(F)(F)F)nnc2Oc2cc(OC(F)(F)F)ccc2F)c1 [Compound 44]	501 to 1000	201 to 500	–	–
Cc1cc(F)ccc1Oc1nnc(C(F)(F)F)cc1C(=O)Nc1ccnnc1 [Compound 59, 3-(4-Fluoro-2-methyl-phenoxy)-N-pyridazin-4-yl-6-(trifluoromethyl)pyridazine-4-carboxamide]	201 to 500	501 to 1000	–	–
COc1cc(F)ccc1Oc1nnc(C(F)(F)F)cc1C(=O)Nc1cccc(-n2cnnc2C)c1 [Compound 54]	1000 to 5000	1000 to 5000	–	–
NS(=O)(=O)c1cccc(NC(=O)c2cc(C(F)(F)F)nnc2Oc2ccc(F)cc2O)c1 [Compound 131, 3-(4-Fluoro-2-hydroxyphenoxy)-N-(3-sulfamoylphenyl)-6-(trifluoromethyl)pyridazine-4-carboxamide]	501 to 1000	201 to 500	–	–
COc1cc(F)ccc1Oc1nnc(C(F)(F)F)cc1C(=O)Nc1cccc(S(C)(=N)=O)c1 (stereo not drawn) [Compound 99, 3-(4-Fluoro-2-methoxyphenoxy)-N-(3-(S-methylsulfonimidoyl)phenyl)-6-(trifluoromethyl)pyridazine-4-carboxamide]	≤ 200	≤ 200	–	–
Cc1cc(C2CC2)ccc1Oc1nnc(C(F)(F)F)cc1C(=O)Nc1cccc(S(C)(=O)=O)c1 [Compound 87]	≤ 200	≤ 200	–	–
COc1cc(NC(=O)c2cc(C(F)(F)F)nnc2Oc2ccc(F)cc2OC)ccn1 [Compound 33]	≤ 200	≤ 200	–	–
COc1cc(F)ccc1Oc1nnc(C(F)(F)F)cc1C(=O)Nc1cccc(CS(C)(=O)=O)c1 [Compound 19]	1000 to 5000	1000 to 5000	–	–
COc1cc(F)ccc1Oc1nnc(C(F)(F)F)cc1C(=O)Nc1cc(S(C)(=O)=O)ccc1F [Compound 23]	201 to 500	201 to 500	–	–
Cc1ccc(F)cc1Oc1nnc(C(F)(F)F)cc1C(=O)Nc1cccc(S(C)(=O)=O)c1 [Compound 70]	501 to 1000	501 to 1000	–	–
Cc1cc(F)ccc1Oc1nnc(C(F)(F)F)cc1C(=O)Nc1ccn2nnnc2c1 [Compound 135, 3-(4-Fluoro-2-methylphenoxy)-N-(tetrazolo[1,5-a]pyridin-7-yl)-6-(trifluoromethyl)pyridazine-4-carboxamide]	501 to 1000	≤ 200	–	–
COc1ccc(F)cc1Oc1nnc(C(F)(F)F)cc1C(=O)Nc1cccc(S(C)(=O)=O)c1 [Compound 81]	1000 to 5000	201 to 500	–	–
COc1cc(F)ccc1Oc1nnc(C(F)(F)F)cc1C(=O)Nc1cccc(S(N)(=O)=O)c1 [Compound 39]	≤ 200	≤ 200	–	–
COc1cc(C#N)ccc1Oc1nnc(C(F)(F)F)cc1C(=O)Nc1cc(S(C)(=O)=O)ccc1F [Compound 77]	201 to 500	201 to 500	–	–

Structure (SMILES)	IC50 [1, 3] [nM]	IC50 [1, 4] [nM]	IC50 [2, 5] [nM]	IC50 [2, 6] [nM]
Cc1cc(C(=O)Nc2cccc(S(C)(=N)=O)c2)c(Oc2ccc(F)cc2C)nn1 (stereo not drawn) [Compound 93, 3-(4-Fluoro-2-methyl-phenoxy)-6-methyl-N-[3-(methylsulfonimidoyl)phenyl]pyridazine-4-carboxamide]	> 5000	1000 to 5000	–	–
COc1cc(F)ccc1Oc1nnc(C(F)(F)F)cc1C(=O)Nc1ccnc(C(N)=O)c1 [Compound 126, N-(2-Carbamoylpyridin-4-yl)-3-(4-fluoro-2-methoxyphenoxy)-6-(trifluoromethyl)pyridazine-4-carboxamide]	≤ 200	≤ 200	–	–
Cc1cc(Br)ccc1Oc1nnc(C(F)(F)F)cc1C(=O)Nc1cccc(S(C)(=N)=O)c1 (stereo not drawn) [Compound 117, 3-(4-Bromo-2-methylphenoxy)-N-(3-(S-methylsulfonimidoyl)phenyl)-6-(trifluoromethyl)pyridazine-4-carboxamide]	≤ 200	≤ 200	–	–
Cc1cc(C#N)ccc1Oc1nnc(C(F)(F)F)cc1C(=O)Nc1cccc(C(N)=O)c1 [Compound 79]	201 to 500	201 to 500	–	–
COc1ccc(Oc2nnc(C(F)(F)F)cc2C(=O)Nc2cccc(S(C)(=O)=O)c2)c(C)c1 [Compound 53]	≤ 200	≤ 200	–	–
COc1cc(NC(=O)c2cc(C(F)(F)F)nnc2Oc2ccc(F)cc2C)c(C)cn1 [Compound 29]	> 5000	> 5000	–	–
COc1cc(C#N)ccc1Oc1ncc(C(F)(F)F)cc1C(=O)NC12CC(C(N)=O)(C1)C2 [Compound 1721, N-(3-carbamoyl-1-bicyclo[1.1.1]pentanyl)-2-(4-cyano-2-methoxy-phenoxy)-5-(trifluoromethyl)pyridine-3-carboxamide]	–	–	200 to 500	200 to 500
CS(=O)(=O)c1cccc(NC(=O)c2cc(C(F)(F)F)cnc2OC2CCOC2)c1 (stereo not drawn) [Compound 1662]	–	–	200 to 500	200 to 500
NC(=O)c1ccc(NC(=O)c2cc(C(F)(F)F)cnc2OC2CC3C(C2)C3(F)F)cc1 (stereo not drawn) [Compound 1673]	–	–	200 to 500	200 to 500
COc1c(Oc2nnc(C(F)(F)F)c(C)c2C(=O)Nc2cccc(S(C)(=N)=O)c2)ccc(Cl)c1F (single isomer, unassigned) [Compound 1490, 3-(4-chloro-3-fluoro-2-methoxy-phenoxy)-5-methyl-N-[3-(methylsulfonimidoyl)phenyl]-6-(trifluoromethyl)pyridazine-4-carboxamide]	–	–	≤ 20	≤ 20
COc1cc(C#N)ccc1Oc1nnc(-c2ccc(C(F)F)cc2)c(C)c1C(=O)Nc1cccc([S@@](C)(=N)=O)c1 [Compound 1533, 3-(4-cyano-2-methoxyphenoxy)-6-[4-(difluoromethyl)phenyl]-N-{3-[(S)-imino(methyl)oxo-λ^6-sulfanyl]phenyl}-5-methylpyridazine-4-carboxamide]	–	–	20 to 40	20 to 40
NC(=O)c1cccc(NC(=O)c2cc(C(F)(F)F)cnc2OC2CC(C(F)(F)F)C2)c1 (mixture of isomers) [Compound 1667]	–	–	200 to 500	200 to 500
Cc1cc(OC(F)(F)F)ccc1Oc1ncc(C(F)(F)F)cc1C(=O)Nc1cccc(S(C)(=O)=O)c1 [Compound 1573, N-(3-methylsulfonylpheny1)-2-[2-methyl-4-(trifluoromethoxy)phenoxy]-5-(trifluoromethyl)pyridine-3-carboxamide]	–	–	≤ 20	≤ 20
COc1cc(C#N)ccc1Oc1nnc(C(F)(F)F)c(C)c1C(=O)Nc1cccc(S(C)(=O)=O)c1 [Compound 4]	–	–	≤ 20	≤ 20
CS(=N)(=O)c1cccc(NC(=O)c2cc(C(F)(F)F)cnc2OC2CC(C#N)C2)c1 (stereo not drawn) [Compound 1665]	–	–	200 to 500	200 to 500
COc1cc(C#N)ccc1Oc1nnc(C(F)(F)F)c(C)c1C(=O)Nc1cccc(C#N)c1 [Compound 1548, 3-(4-cyano-2-methoxy-phenoxy)-N-(3-cyanophenyl)-5-methyl-6-(trifluoromethyl)pyridazine-4-carboxamide]	–	–	20 to 40	20 to 40
